Results: patent US20190092802A1, “ANTAGONISTS OF NK1 RECEPTORS DERIVED FROM CARBOHYDRATES, PRODUCTION METHOD AND MEDICAL USE” (CONSEJO SUPERIOR DE INVESTIGACIONES CIENTIFICAS (CSIC), priority 2015, published 2019)
Entries after “also recorded” stand apart in the source; their conditions may differ.

What was measured:
[1] = system: A549 human cells from lung adenocarcinoma; assay: MTT cell viability assay, A549; assay type: cell-based; settings: for IC50: A549, 48 hours exposure, MTT; for anticancer activity against the cancer line (in words): A549 lung cancer cells
[2] = system: MRC5 non-malignant human lung cells; assay: MTT cell viability assay, MRC-5; assay type: cell-based
NK1 receptor [3] = molecular target: T1, NK1 receptor (Homo sapiens, UniProt P25103); assay: Displacement of marked SP ([125I]BH-SP); assay type: binding; settings: Concentration 6.0E−05 M; marked SP 0.15 nM, 60 minutes at room temperature
Target sequence in this assay (P25103 whole entry): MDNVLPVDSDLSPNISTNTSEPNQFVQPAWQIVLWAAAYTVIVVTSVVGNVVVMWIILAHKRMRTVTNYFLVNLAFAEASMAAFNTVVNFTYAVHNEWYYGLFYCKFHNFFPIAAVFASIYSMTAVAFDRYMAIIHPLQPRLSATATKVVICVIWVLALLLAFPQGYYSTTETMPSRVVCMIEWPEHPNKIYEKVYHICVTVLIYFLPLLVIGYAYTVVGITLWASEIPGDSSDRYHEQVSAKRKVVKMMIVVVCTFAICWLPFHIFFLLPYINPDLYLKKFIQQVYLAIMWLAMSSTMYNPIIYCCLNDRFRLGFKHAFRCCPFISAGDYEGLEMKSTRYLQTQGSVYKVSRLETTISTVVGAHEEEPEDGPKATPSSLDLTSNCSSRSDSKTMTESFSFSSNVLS

NK1 receptor [4] = molecular target: T1, NK1 receptor; assay: IP-One assay (SP-induced IP1 accumulation in CHO cells transfected with NK1); assay type: cell-based; set-up: expressed in transfected cells; host or cells: CHO cells, transient electroporation
Protocol: Non-essential amino acids were also added to the medium (Invitrogen).
Transient transfection of the cell lines was carried out by electroporation in a volume of 300 μL with a total of 10 μg DNA (pRK5 Neo-NK1 wild type) plasmid (using up to 500 ng of pRK5como carrier DNA to achieve 10 μg) and with 10^7 cells in the electroporation buffer (50 mM K2HPO4, 20 mM CH3COOK, 20 mM KOH and 26 mM MgSO4, pH 7.4). After electroporation (280 V, 1 mF, GeneZapper 450/2500; IBI, New Haven, Conn., USA), the cells were suspended in a complete medium and seeded on well culture plates with a density of 10^5 per well. The 96-well culture plates were first covered with polyornithine diluted in PBS, then incubated at 37° C. for 30 minutes and they were then washed with PBS before being seeded.
The activation and inhibition of the route of the IP by the NK1 receptor agonists and antagonists, respectively, was determined using the dynamic IP-One kit (Cisbio Bioassays, Bagnols-sur-Cèze, France). After transfection, 10^5 cells were distributed in 100 pll of a complete medium into a 96-well assay plate (Greiner Bio-One, Courtaboeuf, France). After 24 hours, the medium was eliminated and replaced by 40 μl of an incubation medium that contained the agonist and/or antagonist in an appropriate concentration.
Target sequence in this assay (P25103 whole entry, species assumed): as the sequence (P25103 whole entry) above

[5] = Homo sapiens, MRC5, MRC-5, 48 hours exposure

Molecule	IC50 ([1]; Homo sapiens)	IC50 [2, 5]	% Inhibition of the control specific affinity (NK1 receptor [3])	anticancer activity against the cancer line (in words) [1]	other results
C[C@@H](O[C@H]1OCCN(Cc2n[nH]c(=O)[nH]2)[C@H]1c1ccc(F)cc1)c1cc(C(F)(F)F)cc(C(F)(F)F)c1 [Aprepitant, reference compound]	15.7 ± 3.46 µM	22.1 ± 6.92 µM	–	–	–
COc1ccccc1CN[C@H]1C2CCN(CC2)[C@H]1C(c1ccccc1)c1ccccc1 [CP-96345, reference compound]	46.8 ± 8.89 µM	57.9 ± 8.07 µM	–	–	–
C[C@@H](O[C@H]1O[C@@H]2CO[C@@H](c3ccccc3)O[C@@H]2[C@H](O)[C@H]1OCc1ccc(F)cc1)c1cc(C(F)(F)F)cc(C(F)(F)F)c1 [Compound 2, (R)-{1-[3,5-bis-(trifluoromethyl)phenyl]ethyl} 2-O-p-fluorobenzyl-(R)-[4,5-O-benzylidene]-α-D-galactopyranoside]	19.3 ± 7.93 µM	120 ± 3.45 µM	≥100%	most active; also recorded: matches those of cisplatin	NK1 receptor antagonist activity (in words) (NK1 receptor [4]; IP-One assay, inhibition of SP activity): excellent inhibitors of SP activity; also recorded: greatest antagonist activity
C[C@@H](O[C@H]1OC[C@@H]2OC(C)(C)O[C@@H]2[C@H]1OCc1ccc(F)cc1)c1cc(C(F)(F)F)cc(C(F)(F)F)c1 [Compound 8]	–	–	≥100%	–	–
CC(=O)N[C@@H](Cc1c[nH]c2ccccc12)C(=O)OCc1cc(C(F)(F)F)cc(C(F)(F)F)c1 [L-732,138, reference compound]	–	–	–	–	Kinact (NK1 receptor [4]; inhibition of substance P (SP), dose-response curves, IP-One assay): 8.37E−08±2.63 M; SP inhibition (NK1 receptor [4]; ligand concentration of 10^−6M): 69%
(R)-{1-[3,5-bis-(trifluoromethyl)phenyl]ethyl} 2-O-p-fluorobenzyl-(R)-[4,5-O-benzylidene]-β-D-D-galactopyranoside [Compound 1]	–	–	–	most active	IC50 [1]: 28 ± 6.85 µM; IC50 ([2]; MRC-5, 48 hours exposure): 141 ± 1.82 µM
